Reference: PubChem BioAssay (NCI)
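Results reflect a 48-hour exposure of cells in 96-well plates to compound at five concentrations. GI50 is the concentration that inhibits growth by half. TGI marks complete inhibition of growth.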

Experiments:
Test in all cases: NCI anticancer screen, dose series, 48 h
[1] = system: NCI-H226 lung
[2] = system: SN12C renal
[3] = system: A549 NSCLC
[4] = system: RPMI-8226 leukemia
[5] = system: OVCAR-8 ovarian
[6] = system: EKVX NSCLC
[7] = system: SF-268 CNS
[8] = system: HCT-15 colon
[9] = system: TK-10 renal
[10] = system: UACC-62 melanoma

Structure (SMILES) | TGI [1] | TGI [2] | TGI [3] | TGI [4] | TGI [5] | TGI [6] | TGI [7] | TGI [8] | TGI [9] | TGI [10] | GI50 [1] | GI50 [2] | GI50 [3] | GI50 [4] | GI50 [5] | GI50 [6] | GI50 [7] | GI50 [8] | GI50 [9] | GI50 [10]
Cc1ccnc2[nH]c(-c3ccc(Cl)cc3)cc(=O)c12 | > 30.7 µM | > 100 µM | > 100 µM | > 58.5 µM | > 100 µM | > 100 µM | > 100 µM | > 100 µM | > 100 µM | > 100 µM |  |  |  |  |  |  |  |  |  | 
CC(C)(C)c1ccc(OCCOc2ccc(C(C)(C)C)cc2NC=O)c(NC=O)c1 | 28.1 µM | 30.8 µM | > 100 µM | 13.6 µM | 59.4 µM | 98 µM | 65.8 µM | 26.4 µM | > 100 µM | 28.1 µM |  |  |  |  |  |  |  |  |  | 
CCOC1=C2N=C(C(CC)c3ccc(F)cc3)N=C2C(=O)c2ccccc21 (stereo not given) | 41.6 µM | > 66.7 µM | > 85.8 µM | > 88.5 µM | > 100 µM | > 79.7 µM | 99.4 µM | > 100 µM | 66.7 µM | 29.7 µM |  |  |  |  |  |  |  |  |  | 
COc1cc2ccnc3c2c(c1OC)N(C)C=C3 | 54.1 µM | > 100 µM | 41 µM | 82.2 µM | > 100 µM | 61.6 µM | > 100 µM | > 100 µM | > 100 µM | 80.3 µM |  |  |  |  |  |  |  |  |  | 
O=C(/C=C/c1cc2ccccc2[nH]c1=O)c1ccc(O)cc1 | 10.9 µM | 16 µM | 11.8 µM | 24.8 µM | 21.1 µM | 27.2 µM | 23.3 µM | 12.8 µM | 11.8 µM | 8.73 µM | 3.29 µM | 3.48 µM | 2.73 µM | 3.2 µM | 3.23 µM | 13.4 µM | 3.76 µM | 2.71 µM | 3.81 µM | 2.88 µM
COc1cc(/C=[N+](\[O-])c2ccccc2Cl)ccc1OC(=S)S | > 100 µM | > 100 µM | > 100 µM | > 100 µM | > 100 µM | > 100 µM | > 100 µM | > 100 µM | > 100 µM | 99.7 µM |  |  |  |  |  |  |  |  |  | 
CCOP(=O)(OCC)C(Cc1cn(S(=O)(=O)c2ccc(C)cc2)cn1)C(=O)O (stereo not given) | > 100 µM | > 100 µM | > 100 µM | > 100 µM | > 100 µM | > 100 µM | > 100 µM | > 100 µM | > 100 µM | > 100 µM |  |  |  |  |  |  |  |  |  | 
COC(=O)[C@@]1(Cc2ccc(OC(C)=O)cc2)Cc2cc3ccccc3n2N1 | > 100 µM | > 100 µM | > 100 µM | > 100 µM | > 100 µM | > 100 µM | > 100 µM | > 100 µM | > 100 µM | > 100 µM |  |  |  |  |  |  |  |  |  | 
CCc1c[n+]2c(cc1C1=CN3c4ccccc4[C@]45CCN6C/C(=C/CO)[C@H](C[C@H]64)[C@@H]([C@@H]1O)[C@H]35)-c1[nH]c3ccccc3c1CC2 | > 50 µM | > 50 µM | > 50 µM | > 50 µM | > 50 µM | > 50 µM | > 50 µM | > 50 µM | > 50 µM | > 50 µM |  |  |  |  |  |  |  |  |  | 
CC(C)C(N=C1CC2CCC1(C(=O)Nc1ccccc1O)C2(C)C)c1ccccc1 (stereo not given) | > 10 µM | > 10 µM | > 10 µM | > 10 µM | > 10 µM | > 10 µM | > 10 µM | > 10 µM | > 10 µM | > 10 µM |  |  |  |  |  |  |  |  |  | 
COc1c(C(=O)CC2c3c(cc4oc(C)cc(=O)c4c3OC)OC(=N)C2c2nc3ccccc3[nH]2)c(O)c(OC)c2occc12 (stereo not given) | > 100 µM | > 100 µM | > 100 µM | > 100 µM | > 100 µM | > 100 µM | > 100 µM | > 100 µM | > 100 µM | > 100 µM |  |  |  |  |  |  |  |  |  | 
OC[C@H](O)[C@@H](OCc1ccccc1)[C@H](NCc1ccccc1)c1cccs1 | > 100 µM | > 100 µM | > 100 µM | > 100 µM | > 100 µM | > 100 µM | > 100 µM | > 100 µM | > 100 µM | > 100 µM |  |  |  |  |  |  |  |  |  | 
CC(=O)[C@H]1CC[C@@H]2[C@]1(C)CC=C1[C@]23C=C[C@]2(C[C@@H](O)CC[C@]12C)C(C(=O)O)C3C(=O)O (stereo not given in full) | > 100 µM | > 100 µM | > 100 µM | > 100 µM | > 100 µM | > 100 µM | > 100 µM | > 100 µM | > 100 µM | > 100 µM |  |  |  |  |  |  |  |  |  | 
O=[N+]([O-])c1cc(-c2ccc([As](=O)(O)O)cc2)ccc1[As](=O)(O)O | > 100 µM | > 100 µM | > 100 µM | > 100 µM | > 100 µM | > 100 µM | > 100 µM | > 100 µM | > 100 µM | > 100 µM |  |  |  |  |  |  |  |  |  | 
C=C1C(O)C2OC(=O)C(=C)C2C(OC(=O)/C(C)=C/C)CC2(C)OC2C2OC12 (stereo not given) | > 100 µM | 14.8 µM | > 100 µM | 7.72 µM | > 100 µM | 33 µM | > 100 µM | 14.5 µM | 47.2 µM | 48.2 µM |  |  |  |  |  |  |  |  |  | 
O=C(O)Cn1cnc2c(=O)[nH]c(Nc3ccccc3)nc21 | > 100 µM | > 100 µM | > 100 µM | > 100 µM | > 100 µM | > 100 µM | > 100 µM | > 100 µM | > 100 µM | > 100 µM |  |  |  |  |  |  |  |  |  | 
CN(C)CCNC(=O)c1cccc2c(NC(CCCN=C(N)N)C(=O)O)c3ccccc3nc12 (stereo not given) | 22.8 µM | > 100 µM | > 100 µM | > 100 µM | 30.5 µM | 30.1 µM | 27.7 µM | > 100 µM | > 100 µM | 60 µM |  |  |  |  |  |  |  |  |  | 
COC(=O)c1cc(NC(=O)Cn2c3ccccc3c3ccccc32)cn1C | 58.5 µM | > 100 µM | > 100 µM | 75 µM | > 100 µM | > 100 µM | > 100 µM | > 100 µM | > 100 µM | 73.9 µM |  |  |  |  |  |  |  |  |  | 
CCCC(CCC(=O)O)(CCC(=O)O)[N+](=O)[O-] | > 100 µM | > 100 µM | > 100 µM | > 100 µM | > 100 µM | > 100 µM | > 100 µM | > 100 µM | > 100 µM | > 100 µM |  |  |  |  |  |  |  |  |  | 
C=c1c2ccccc2oc2nc3[nH]c(N)c(C#N)c(N)c3c(=N)c12 | 74.9 µM | > 100 µM | > 100 µM | > 100 µM | 54.6 µM | 73 µM | 70.9 µM | > 100 µM | > 100 µM | > 100 µM |  |  |  |  |  |  |  |  |  | 
Clc1ccc(CCNCCNC2(c3cc4ccccc4s3)CCCCC2)cc1Cl | 3.64 µM | 3.53 µM | 3.81 µM | 4.62 µM | 3.54 µM | 3.99 µM | 3.37 µM | 3.61 µM | 3.07 µM | 3.11 µM |  |  |  |  |  |  |  |  |  | 
CNC(=O)/C(C#N)=C(\N)N1CCCC1 | > 100 µM | > 100 µM | > 100 µM | > 100 µM | > 100 µM | > 100 µM | > 100 µM | > 100 µM | > 100 µM | > 100 µM |  |  |  |  |  |  |  |  |  | 
Cc1nc2cc3[nH]c4ccccc4c(=O)c3cc2s1 | > 100 µM | > 100 µM | > 100 µM | > 100 µM | > 100 µM | > 100 µM | > 100 µM | > 100 µM | > 100 µM | > 100 µM |  |  |  |  |  |  |  |  |  | 
CCOC(=O)C(NS(=O)(=O)c1ccccc1)(C(F)(F)F)P(=O)(OCC(C)C)OCC(C)C (stereo not given) | > 100 µM | > 100 µM | > 100 µM | > 100 µM | > 100 µM | > 100 µM | > 100 µM | > 100 µM | > 100 µM | > 100 µM |  |  |  |  |  |  |  |  |  | 
CC(=O)OC1CC[C@@]2(C)C(=CC[C@@H]3[C@@H]2CC[C@]2(C)Nc4c(cnn4-c4ccc(F)cc4)C[C@@H]32)C1 (stereo not given in full) | > 100 µM | > 100 µM | > 100 µM | 28.3 µM | > 100 µM | > 100 µM | > 100 µM | > 100 µM | > 100 µM | > 71.1 µM |  |  |  |  |  |  |  |  |  | 
Nc1nc(Cl)cc(Oc2ccc(Cl)cc2)n1 | > 100 µM | > 100 µM | > 100 µM | > 100 µM | > 100 µM | > 100 µM | > 100 µM | > 100 µM | > 100 µM | > 100 µM |  |  |  |  |  |  |  |  |  | 
COc1cc([C@@H]2c3cc4c(cc3[C@H](OC3OC5COC(C(C)C)OC5C(O)C3O)C3COC(=O)[C@@H]32)OCO4)cc(OC)c1OC (stereo not given in full) | 12.6 µM | > 100 µM | > 100 µM | 48.8 µM | 30.1 µM | > 100 µM | > 100 µM | 94.1 µM | > 100 µM | 26.6 µM |  |  |  |  |  |  |  |  |  | 
